Assay results as given in patent US11730746B2, “17beta-heterocyclyl-digitalis like compounds for the treatment of heart failure” (priority 2018, dated 2023).

What was measured:
SERCA2a = target: T1, SERCA2a (Canis lupus familiaris, UniProt O46674); conditions: literature (Rocchetti 2005; Ferrandi 2013); cited from earlier work
T1 construct: pre-incubated with 2 μg of microsomes; from tissue; host or cells: dog heart left ventricle, SR microsomes

dog renal Na,K-ATPase = target: T2, dog renal Na,K-ATPase (Canis lupus familiaris, UniProt P50997); test: Inhibition of dog renal Na,K-ATPase activity (32P-ATP release); assay type: biochemical
T2 construct: incubated with 0.3 μg of purified dog kidney enzyme; from tissue; host or cells: dog kidney outer medulla
Protocol: Kidneys were sliced and the outer medulla was dissected, pooled and suspended (1 g/10 ml) in a sucrose-histidine solution, containing 250 mM sucrose, 30 mM histidine and 5 mM EDTA, pH 7.2 and homogenized. […] The pellet was suspended in the sucrose-histidine buffer and incubated for 20 min with a sodium-dodecyl-sulphate (SDS) solution dissolved in a gradient buffer, containing 25 mM imidazole and 1 mM EDTA, pH 7.5. […] The pellet was suspended in the gradient buffer.
Increasing concentrations of the standard ouabain, or tested compound, were incubated with 0.3 μg of purified dog kidney enzyme for 10 min at 37° C. in 120 μl final volume of a medium, containing 140 mM NaCl, 3 mM MgCl2, 50 mM Hepes-Tris, 3 mM ATP, pH 7.5. […] The inhibitory activity was expressed as percent of the control samples carried out in the absence of ouabain or tested compound.

guinea pig = test: Haemodynamics: inotropic and lethal dose in guinea pig; assay type: in vivo
Protocol: Guinea-pigs (400-450 g) were anaesthetized with urethane (1.5 g/kg ip). A microtip pressure transducer was introduced into the left ventricle through the right carotid artery to measure ventricular pressure (LVP); the transducer was coupled with a transducer amplifier. Recordings were fed to a polygraph and analyzed. A polythene cannula was inserted into a jugular vein for drug infusion. After a stabilization period, the test substance was injected at the rate of 0.16 ml/min for 90 min (Micheletti R et al. J Pharmacol Exp Ther 2002; 303:592-600).
The following parameters were obtained: heart rate (HR), left ventricular pressure (LVP), maximal velocity of pressure rise (+dP/dtmax) and decay (−dP/dtmax), ECG. For inotropy, the time elapsed until +dP/dtmax increased by 80% was identified in order to determine the ED80 (dose increasing basal +dP/dtmax by 80%). The time to the maximum increase in +dP/dtmax was also identified to determine the maximum effective dose, EDmax. Lusitropy was characterized by the dose inducing the maximum decrease in −dP/dtmax, (EDmax). As indexes of toxicity, the dose administered until the onset of arrhythmias and the dose inducing death (LD) were calculated. The safety ratio for the tested compound was also calculated as the ratio between LD and ED80.

[1] = literature (Packer 2016, 2018); cited from earlier work
[2] = tested on: mouse (Albino Swiss CD-1); conditions: i.v., data from literature; cited from earlier work
STZ diabetic rats = test: Haemodynamics in streptozotocin diabetic rats (echocardiography); assay type: in vivo, rat; conditions: 20 mg/kg os, after treatment, mean ± SD, n = 12
Protocol: Sprague Dawley male rats (150-175 g) were made diabetic by a single injection into the tail vein of a solution of streptozotocin (STZ, 50 mg/kg, Sigma-Aldrich), freshly prepared in 0.1 M sodium citrate buffer, pH 4.5. Control rats received citrate buffer. Fasting glycaemia was measured after 1 week and rats with values >400 mg/dl were considered diabetic.
Eight-nine weeks after STZ injection, rats were submitted to transthoracic echocardiographic and Doppler evaluation performed under pentobarbital anesthesia. Two-dimensionally guided M-mode recordings were used to obtain short-axis measurements of left ventricular end-diastolic diameter (LVEDD), left ventricular end-systolic diameter (LVESD), posterior (PW) and septal (SW) diastolic wall thickness according to the American Society of Echocardiography guidelines (Lang R M et al. Eur J Echocardiography 2006; 7:79-108). Fractional shortening was calculated as FS=(LVEDD-LVESD)/LVEDD. Relative wall thickness was calculated as PWTd+IVSTd/LVEDD.
Mitral inflow was measured by pulsed Doppler at the tips of mitral leaflets from an apical 4-chamber view to obtain early and late filling velocities (E, A) and deceleration time of early filling velocity (DT). The deceleration slope was calculated as E/DT ratio. The mitral deceleration index was calculated as DT/E ratio.
Tissue Doppler Imaging (TDI) was evaluated from the apical 4-chamber view to record septal mitral annular movements, i.e., peak myocardial systolic (s′) and early and late diastolic velocity (e′ and a′).
Compound CVie 101 was orally administered to STZ injected rats at the dose of 20 mg/kg and echocardiographic parameters were measured after 1 h.

T1 sequence (O46674 whole entry): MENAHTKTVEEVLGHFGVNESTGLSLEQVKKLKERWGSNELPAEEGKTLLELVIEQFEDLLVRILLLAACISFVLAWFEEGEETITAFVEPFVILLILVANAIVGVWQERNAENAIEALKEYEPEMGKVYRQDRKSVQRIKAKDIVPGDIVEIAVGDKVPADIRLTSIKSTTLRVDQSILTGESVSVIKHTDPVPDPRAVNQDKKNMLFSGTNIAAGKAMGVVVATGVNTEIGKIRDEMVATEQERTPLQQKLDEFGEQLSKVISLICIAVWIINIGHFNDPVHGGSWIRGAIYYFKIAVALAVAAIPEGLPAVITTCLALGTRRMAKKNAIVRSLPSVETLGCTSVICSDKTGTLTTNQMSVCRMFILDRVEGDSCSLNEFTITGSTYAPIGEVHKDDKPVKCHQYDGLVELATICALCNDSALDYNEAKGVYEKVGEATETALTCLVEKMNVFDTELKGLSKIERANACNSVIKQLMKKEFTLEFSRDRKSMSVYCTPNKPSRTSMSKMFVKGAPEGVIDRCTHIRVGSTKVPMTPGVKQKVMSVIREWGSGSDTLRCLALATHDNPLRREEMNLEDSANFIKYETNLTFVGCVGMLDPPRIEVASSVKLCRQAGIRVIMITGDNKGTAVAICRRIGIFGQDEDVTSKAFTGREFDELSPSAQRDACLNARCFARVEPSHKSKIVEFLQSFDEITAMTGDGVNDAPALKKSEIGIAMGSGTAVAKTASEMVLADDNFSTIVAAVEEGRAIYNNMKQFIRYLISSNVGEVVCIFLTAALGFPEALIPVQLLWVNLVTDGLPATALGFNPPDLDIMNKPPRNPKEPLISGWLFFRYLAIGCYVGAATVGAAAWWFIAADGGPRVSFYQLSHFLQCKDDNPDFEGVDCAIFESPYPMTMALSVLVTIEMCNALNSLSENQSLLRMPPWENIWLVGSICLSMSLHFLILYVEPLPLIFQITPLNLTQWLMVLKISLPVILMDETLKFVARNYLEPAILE

## C[C@H]1O[C@@H](O[C@H]2[C@@H](O)C[C@H](O[C@H]3[C@@H](O)C[C@H](O[C@H]4CC[C@@]5(C)[C@H](CC[C@@H]6[C@@H]5C[C@@H](O)[C@]5(C)[C@@H](C7=CC(=O)OC7)CC[C@]65O)C4)O[C@@H]3C)O[C@@H]2C)C[C@H](O)[C@@H]1O [Digoxin, reference compound]
SERCA2a
  SERCA2a activity: failed to stimulate
Dog renal Na,K-ATPase
  IC50: 300 nM
Guinea pig; guinea pig, in vivo
  ED80: 0.69 mg/kg
Guinea pig; i.v. infusion […]
  Lethal dose: 1.20 mg/kg
[1]
  serum concentration ranges at which digoxin displays its beneficial effects: 0.5 to 0.7 ng/mL
  serum threshold level above which increased risk of death, mainly due to arrhythmias, has been observed: 0.9 ng/mL
[2]
  LD50: 7.7 mg/kg
STZ diabetic rats
  A (late filling velocity of mitral inflow): 0.92 ± 0.1 m/s
  A′ (TDI late relaxation velocity): 35.8 ± 5 cm/s
  CO (cardiac output): 246.8 ± 72 mL/min
  DT (deceleration time of E wave): 39.2 ± 9.34 ms
  E (early filling velocity of mitral inflow): 1.02 ± 0.13 m/s
  E/DT (deceleration slope): 27.9 ± 9.8 m/s2
  E′ (TDI early relaxation velocity): 23.7 ± 1.35 cm/s
  FS (fractional shortening): 47.2 ± 3.24 %
  HR (heart rate): 308 ± 39 beat/min
  SV (stroke volume): 0.80 ± 0.19 ml/beat
  S′ (TDI contraction velocity): 26.7 ± 2.77 cm/s
